Columns and labels:
[1] = target: Carbonic anhydrase, alpha family (Thiomicrospira crunogena, UniProt Q31FD6)
Description: Inhibition of recombinant Thiomicrospira crunogena XCL-2 carbonic anhydrase by stopped flow CO2 hydrase assay

Carbonate dehydratase = target: T1, Carbonate dehydratase (Sulfurihydrogenibium sp. (strain YO3AOP1), UniProt B2V8E3)
T1 sequence (B2V8E3 whole entry): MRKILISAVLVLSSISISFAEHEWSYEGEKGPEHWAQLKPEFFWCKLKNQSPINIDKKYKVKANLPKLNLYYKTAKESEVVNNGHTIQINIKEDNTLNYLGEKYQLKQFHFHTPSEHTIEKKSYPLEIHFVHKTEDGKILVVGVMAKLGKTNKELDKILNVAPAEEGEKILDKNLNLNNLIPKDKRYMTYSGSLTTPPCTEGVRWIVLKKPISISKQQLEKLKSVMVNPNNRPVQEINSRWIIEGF
Description: Inhibition of recombinant Sulfurihydrogenibium yellowstonense YO3AOP1 carbonic anhydrase by stopped flow CO2 hydrase assay

Chain of Carbonic anhydrase, alpha family (Q31FD6 whole entry): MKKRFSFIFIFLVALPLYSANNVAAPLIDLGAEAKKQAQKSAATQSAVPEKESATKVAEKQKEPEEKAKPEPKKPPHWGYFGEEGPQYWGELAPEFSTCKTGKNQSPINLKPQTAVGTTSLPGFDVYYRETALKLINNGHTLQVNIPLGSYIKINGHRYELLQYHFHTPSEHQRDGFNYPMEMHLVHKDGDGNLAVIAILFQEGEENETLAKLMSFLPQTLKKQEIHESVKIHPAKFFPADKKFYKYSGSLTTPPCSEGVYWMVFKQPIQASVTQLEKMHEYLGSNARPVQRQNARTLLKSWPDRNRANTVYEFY

| Compound | Ki [1] | Ki (Carbonate dehydratase) |
| --- | --- | --- |
| NS(=O)(=O)c1nc2ccc(O)cc2s1 | 40.7 nM | – |
| NCc1ccc(S(N)(=O)=O)cc1 [MAFENIDE] | 202 nM | 350 nM |
| CCOc1ccc2nc(S(N)(=O)=O)sc2c1 [ETHOXZOLAMIDE] | 4.1 nM | – |
| Cn1nc(S(N)(=O)=O)sc1=N | 4.8 nM | 433 nM |
| NNc1ccccc1S(N)(=O)=O | 71.4 nM | 695 nM |
| Nc1ccc(S(N)(=O)=O)cc1F | 82.1 nM | 68.3 nM |
| Nc1cc(C(F)(F)F)c(S(N)(=O)=O)cc1S(N)(=O)=O [2,4-DISULFAMYLTRIFLUOROMETHYLANILINE] | 67.2 nM | – |
| NS(=O)(=O)c1ccc(C(=O)O)cc1 [CARZENIDE] | 85.2 nM | 72.4 nM |
| NS(=O)(=O)c1ccc(CO)cc1 | 21.2 nM | 493 nM |
| NS(=O)(=O)c1nnc(-c2ccccc2Cl)s1 | 2.5 nM | 70.1 nM |
| Nc1ccc(S(N)(=O)=O)cc1 [SULFANILAMIDE] | 628 nM | 652 nM |
| NS(=O)(=O)c1nnc(NS(=O)(=O)c2ccccc2)s1 [BENZOLAMIDE] | 2.7 nM | – |
| Nc1ccc(S(N)(=O)=O)cc1Br | 545 nM | 75.7 nM |
| Nc1nccc(Nc2ccc(S(N)(=O)=O)cc2)n1 | 92.3 nM | 6.5 nM |
| Nc1cc(Cl)c(S(N)(=O)=O)cc1S(N)(=O)=O | 54.4 nM | – |
| CCN[C@H]1CN(CCCOC)S(=O)(=O)c2sc(S(N)(=O)=O)cc21 [BRINZOLAMIDE] | 4.2 nM | 12.3 nM |
| Nc1nnc(S(N)(=O)=O)s1 | 27.9 nM | 137 nM |
| Nc1ccc(S(=O)(=O)NCCc2ccc(S(N)(=O)=O)cc2)cc1 | 402 nM | 9.7 nM |
| NNc1ccc(S(N)(=O)=O)cc1 | 84.5 nM | 803 nM |
| Nc1ccc(S(=O)(=O)Nc2nnc(S(N)(=O)=O)s2)cc1 | 5.6 nM | 5.5 nM |
| Nc1ccc(S(=O)(=O)NCc2ccc(S(N)(=O)=O)cc2)cc1 | 454 nM | 7.8 nM |
| CC1(C)O[C@@H]2[C@@H](CO[C@@]3(COS(N)(=O)=O)OC(C)(C)O[C@@H]23)O1 [TOPIRAMATE] | 769 nM | 6.6 nM |
| O=C1NS(=O)(=O)c2ccccc21 [SACCHARIN] | 933 nM | 876 nM |
| Cc1ccc(-c2cc(C(F)(F)F)nn2-c2ccc(S(N)(=O)=O)cc2)cc1 [CELECOXIB] | 981 nM | 6.9 nM |
| Nc1ccc(S(N)(=O)=O)cc1I | – | 44.8 nM |
| NS(=O)(=O)c1ccc(CCO)cc1 | 31.5 nM | 162 nM |
| Cc1ccc(S(N)(=O)=O)cc1 [P-TOLUENESULFONAMIDE] | 244 nM | 848 nM |
| NCCc1ccc(S(N)(=O)=O)cc1 | 488 nM | – |
| Nc1ccc(S(N)(=O)=O)cc1Cl | 79.7 nM | 41.2 nM |
